# Tests used:
# [1] = system: monocytes/macrophages, neutrophils, B lymphocytes; settings: cited from earlier work
# [2] = biological target: IgE- and IgG-mediated activation of Fc receptor signaling; settings: read-out: EC50 for degranulation; cited from earlier work
# ITP patients = experiment: Fostamatinib in immune thrombocytic purpura (ITP) patients; assay type: in vivo, human
# C57Bl/6 WT male mice = experiment: Deep vein thrombosis, inferior vena cava (IVC) stenosis model; assay type: in vivo; settings: fostamatinib chow for 3 days; 48 hours after the surgery
# Method: Mice are fed fostamatinib or vehicle chow for 3 days, anaesthetized using isoflurane and then subjected to laparotomy. After tying off the side branches of the IVC, the IVC is stenosed with a ligature and a 30-gauge spacer to maintain a small degree of blood flow. Mice are allowed to recover, then culled 48 hours after the surgery and the IVC are examined for the presence and size of thrombus.
# For deep vein thrombosis assay methods generally, see, Low dose Btk inhibitors selectively block platelet activation by CLEC-2. Phillip L. R. Nicolson et al. Haematologica 2020 Jan. 16. pii: haematol. 2019.218545. doi: 10.3324/haematol.2019.218545
# C57Bl6 mice = experiment: Arterial thrombosis, ferric chloride injury model of carotid artery; assay type: in vivo; settings: fostamatinib chow for 3 days; FeCl3 on carotid artery
# Method: To investigate effect on arterial thrombosis, a ferric chloride injury model in mice is employed. 8-week-old C57Bl6 mice are fed fostamatinib or vehicle chow for 3 days, anaesthetized using mixture of ketamine (100 mg/kg)/xylazine (10 mg/kg) via intraperitoneal injection and have their right jugular vein exposed. Next, rhodamine 6G solution is injected into the right jugular vein to label platelets, exposed carotid artery (CA) staged at the microscope and the thrombosis is induced by applying a piece of filter paper (1×2 mm) saturated with FeCl3 solution directly on the CA. Thrombus formation is identified by accumulation of the fluorescent platelets, which is observed in real-time recording video images under the microscope.
# For arterial thrombosis assay methods generally, see, Wei Li, Thomas M. McIntyre, Roy L. Silverstein. Ferric chloride-induced murine carotid arterial injury: A model of redox pathology. Redox Biology 1 (2013) 50-55, and Wei Li, Marvin Nieman, Anirban Sen Gupta. Ferric Chloride-induced Murine Thrombosis Models. J. Vis. Exp. (115), e54479, doi:10.3791/54479 (2016).
# [3] = system: Transgenic HIT mice homozygous for both FcγRIIA and human PF4 and null for mouse PF4; experiment: Inhibition of thrombosis in vivo, transgenic HIT mice, lung thrombi; settings: chow containing 0.5, 1 and 2 g/kg of R788 for 3 days, KKO or HIT-IgG, then heparin, lungs 3 hours later
# Description: Transgenic HIT mice homozygous for both FcγRIIA and human PF4 and null for mouse PF4 are used to evaluate the effects of fostamatinib on immune complexes (IC)-induced thrombocytopenia and thrombosis. 6-12 weeks old transgenic male mice are fed the control chow or chow containing 0.5, 1 and 2 g/kg of R788 for 3 days prior to the injection of either the monoclonal HIT-like antibody KKO or IgG from HIT patients (HIT-IgG). For HIT-induced thrombocytopenia experiments, all mice received heparin subcutaneously at 1600 U/kg body weight once daily for 6 days, starting with first day after antibody injection. Retro-orbital blood collection is performed daily after anesthetizing the animals starting a day before HIT antibody injection to monitor thrombocytopenia by counting platelets using standard equipment.
# To assess fostamatinib effect on thrombosis, the mice are fed with drug or vehicle chow followed by injection of the HIT antibodies as described. Next day, each animal is retro-orbitally infused with 1×10^8 Alexa750-labeled platelets from untreated syngeneic donor mice prior to heparin injection. Animals are terminated 3 hours later, their lungs are excised, perfused with PBS, fixed with 7% paraformaldehyde and imaged using Odyssey Imaging System (LI-COR Bio). Thrombi are counted and scored by intensity using NIS Elements software (Nikon). […]
smiles,measurement,setting,value
"COc1cc(Nc2ncc(F)c(Nc3ccc4c(n3)NC(=O)C(C)(C)O4)n2)cc(OC)c1OC [R406, 6-((5-fluoro-2-((3,4,5-trimethoxyphenyl)amino)pyrimidin-4-yl)amino)-2,2-dimethyl-2H-pyrido[3,2-b][1,4]oxazin-3(4H)-one]",BCR-mediated activation of B lymphocytes,[1],blocked
same,Syk-dependent FcR-mediated activation of monocytes/macrophages and neutrophils,[1],blocked
same,EC50,[2],56 to 64 nM
"COc1cc(Nc2ncc(F)c(Nc3ccc4c(n3)N(COP(=O)(O)O)C(=O)C(C)(C)O4)n2)cc(OC)c1OC [fostamatinib, [6-({5-Fluoro-2-[(3,4,5-trimethoxyphenyl)amino]-4-pyrimidinyl}amino)-2,2-dimethyl-3-oxo-2,3-dihydro-4H-pyrido[3,2-b][1,4]oxazin-4-yl]methyl dihydrogen phosphate]",platelet levels,ITP patients,increases platelet levels
same,risk of thrombosis,ITP patients,does not appear to increase risk of thrombosis
same,presence and size of thrombus in IVC,C57Bl/6 WT male mice,Relative lack of thrombus
same,arterial thrombus formation (accumulation of fluorescent platelets),C57Bl6 mice,Lack of thrombus formation
same,heparin induced thrombosis (lung thrombi counted and scored by intensity),[3],effectively reduces heparin induced thrombosis
same,heparin induced thrombosis (lung thrombi counted and scored by intensity),[3]; listed as R788,inhibits thrombosis in vivo
